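Growth conditions: 96-well plates. Treatment: test compound, 48 hours, 5 concentrations. Analysis: linear interpolation between bracketing concentrations; unreached endpoints set to highest concentration. At the GI50, growth is halved. TGI is the concentration that stops growth completely.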
How the values were obtained:
Experiment in all cases: NCI tumour cell line growth inhibition, 48 h
M14 melanoma = test system: M14 melanoma
TK-10 renal = test system: TK-10 renal
OVCAR-4 ovarian = test system: OVCAR-4 ovarian
CCRF-CEM leukemia = test system: CCRF-CEM leukemia
OVCAR-8 ovarian = test system: OVCAR-8 ovarian
A498 renal = test system: A498 renal
MCF7 breast = test system: MCF7 breast
RXF 393 renal = test system: RXF 393 renal
UACC-62 melanoma = test system: UACC-62 melanoma
NCI/ADR-RES ovarian = test system: NCI/ADR-RES ovarian
PC-3 prostate = test system: PC-3 prostate
LOX IMVI melanoma = test system: LOX IMVI melanoma
SF-295 CNS = test system: SF-295 CNS
HOP-62 NSCLC = test system: HOP-62 NSCLC
SK-MEL-2 melanoma = test system: SK-MEL-2 melanoma
EKVX NSCLC = test system: EKVX NSCLC
SF-268 CNS = test system: SF-268 CNS
HOP-92 NSCLC = test system: HOP-92 NSCLC
NCI-H23 lung = test system: NCI-H23 lung
MALME-3M melanoma = test system: MALME-3M melanoma
SR leukemia = test system: SR leukemia
CAKI-1 renal = test system: CAKI-1 renal
KM12 colon = test system: KM12 colon
NCI-H226 lung = test system: NCI-H226 lung
SF-539 CNS = test system: SF-539 CNS
MOLT-4 leukemia = test system: MOLT-4 leukemia
HCC-2998 colon = test system: HCC-2998 colon
A549 NSCLC = test system: A549 NSCLC
NCI-H460 lung = test system: NCI-H460 lung
UACC-257 melanoma = test system: UACC-257 melanoma

## Cc1ccc(/C(=C/C=C(/C#N)C(N)=O)Sc2ncnn2C)cc1
M14 melanoma
  TGI: 19.9 µM
TK-10 renal
  GI50: 14.2 µM
  TGI: 29.1 µM
OVCAR-4 ovarian
  GI50: 24.4 µM
  TGI: > 72.5 µM
CCRF-CEM leukemia
  GI50: 0.941 µM
  TGI: > 70.8 µM
OVCAR-8 ovarian
  GI50: 15.8 µM
  TGI: 43.8 µM
A498 renal
  TGI: 3.4 µM
MCF7 breast
  GI50: 3.49 µM
  TGI: > 55.3 µM
RXF 393 renal
  GI50: 6.86 µM
  TGI: 25 µM
UACC-62 melanoma
  GI50: 11 µM
  TGI: 24.6 µM
NCI/ADR-RES ovarian
  GI50: 7.25 µM
  TGI: > 69.6 µM
PC-3 prostate
  GI50: 11.4 µM
  TGI: 25.5 µM
LOX IMVI melanoma
  GI50: 0.227 µM
  TGI: 1.4 µM
SF-295 CNS
  GI50: 16.4 µM
  TGI: 41.5 µM
HOP-62 NSCLC
  GI50: 13.1 µM
  TGI: 27.7 µM
SK-MEL-2 melanoma
  GI50: > 37.6 µM
  TGI: > 55.7 µM
EKVX NSCLC
  GI50: 1.13 µM
  TGI: 14.6 µM
SF-268 CNS
  GI50: 6.84 µM
  TGI: 25.6 µM
HOP-92 NSCLC
  GI50: 14.1 µM
  TGI: 30.5 µM
NCI-H23 lung
  GI50: 4.16 µM
  TGI: 15.8 µM
MALME-3M melanoma
  GI50: 2.03 µM
  TGI: 14.7 µM
SR leukemia
  GI50: 2.51 µM
  TGI: > 35.2 µM
CAKI-1 renal
  GI50: 2.73 µM
  TGI: 19.6 µM
KM12 colon
  GI50: 19.9 µM
  TGI: 44.3 µM
NCI-H226 lung
  GI50: 7.5 µM
  TGI: 25.9 µM
SF-539 CNS
  GI50: 6.19 µM
  TGI: 20.4 µM
MOLT-4 leukemia
  GI50: 10.1 µM
  TGI: > 100 µM
HCC-2998 colon
  GI50: 13 µM
  TGI: 26.4 µM
A549 NSCLC
  GI50: 21.6 µM
  TGI: 54.4 µM
NCI-H460 lung
  GI50: 4.66 µM
  TGI: 48.2 µM
UACC-257 melanoma
  GI50: 17.6 µM
  TGI: 33.6 µM

— PubChem BioAssay (NCI)
